How the values were obtained:
PK15NTD/ENT2 cells = test: Cell viability, MTT assay; type: cell-based, porcine; conditions: 50 µM, 24 or 48 h
Procedure: (§1) PK15NTD/ENT1 and PK15NTD/ENT2 cells were seeded onto 96-well plates until they reached 80–90% confluent. The cells were then treated with different concentrations of compound 3c or an equivalent volume of a vehicle (0.5% dimethyl sulfoxide (DMSO), as a control) in a serum-free medium for another 24 or 48 h. For measuring cell membrane integrity, the lactate dehydrogenase (LDH) released into the culture medium was measured with a detection kit (Abcam, Cambridge, UK) according to the manufacturer’s instructions. The absorbance at 490 nm was measured with a microplate absorbance reader. For measuring cell viability, 0.5 mg/ml methylthiazolyldiphenyl-tetrazolium bromide (MTT) was added to each well. […] The absorbance was measured at 560 nm, with the absorbance at 655 nm serving as the background.
(§2) FIGURE 5 Effects of compound 3c on cytotoxicity and protein expressions of ENT1 and ENT2. Cytotoxicity of compound 3c was measured after 24 h or 48 h treatment of PK15NTD/ENT1 and PK15NTD/ENT2 cells with various concentrations of compound 3c (0.5, 5 and 50 μM) or a vehicle (0.5% DMSO, as a control) (A) The cell viability and (B) cell membrane integrity were determined by the MTT assay and LDH release, respectively (C) PK15NTD/ENT1 and (D) PK15NTD/ENT2 cells were incubated with 50 μM of compound 3c or a vehicle (0.5% DMSO, as a control) for 24 or 48 h. […]

PK15NTD/ENT1 cells = test: Cell viability, MTT assay; type: cell-based, porcine; conditions: 50 µM, 24 or 48 h
Procedure: as §1, §2

ENT1 = test: Cell surface biotinylation and internalization assay; type: cell-based, human; conditions: 50 µM, 24 h or 48 h, PK15NTD cells
Procedure: (§3) To label all surface proteins, after washing with ice-cold PBS, PK15NTD/ENT1 and PK15NTD/ENT2 cells were incubated with sulfo-NHS-SS-biotin (300 μg/ml) for 30 min at 4°C to biotinylate cell surface proteins. The unbound biotin was washed away by PBS containing 0.1% BSA at 4°C. The biotinylated cells were then incubated with the original growth media with or without 50 µM compound 3c and returned to the 5% CO2 incubator at 37 °C for 24 h or 48 h for transporter internalization. Transporter trafficking was stopped by rapidly cooling the cells at 4°C. […]
(§4) FIGURE 5 Effects of compound 3c on cytotoxicity and protein expressions of ENT1 and ENT2. Cytotoxicity of compound 3c was measured after 24 h or 48 h treatment of PK15NTD/ENT1 and PK15NTD/ENT2 cells with various concentrations of compound 3c (0.5, 5 and 50 μM) or a vehicle (0.5% DMSO, as a control) (A) The cell viability and (B) cell membrane integrity were determined by the MTT assay and LDH release, respectively (C) PK15NTD/ENT1 and (D) PK15NTD/ENT2 cells were incubated with 50 μM of compound 3c or a vehicle (0.5% DMSO, as a control) for 24 or 48 h. […] After cleavage of extracellular biotin, internalized biotinylated proteins were precipitated with immobilized streptavidin beads and detected with an anti-ENT1 and anti-ENT2 antibodies by western blotting. […]

ENT2 = test: as above; type: cell-based, human; conditions: 50 µM, 24 h or 48 h, PK15NTD cells
Procedure: as §3, §4

Cc1cccc(Nc2nc(N)nc(CN3CCN(c4ccc(F)cc4)CC3)n2)c1 [Compound 3c]
cell viability (PK15NTD/ENT2 cells): No significant changes
cell viability (PK15NTD/ENT1 cells): No significant changes
location of biotinylated ENT1 (internalization) (ENT1): exclusively found at the plasma membrane
location of biotinylated ENT2 (internalization) (ENT2): exclusively found at the plasma membrane

Source: article PMC8899516, “Structure-Activity Relationship Studies of 4-((4-(2-fluorophenyl)piperazin-1-yl)methyl)-6-imino-N-(naphthalen-2-yl)-1,3,5-triazin-2-amine (FPMINT) Analogues as Inhibitors of Human Equilibrative Nucleoside Transporters” (Frontiers in Pharmacology, 2022)
